# Experimental data: ChEMBL document CHEMBL1156829 (Proc Natl Acad Sci U S A, 2008)
# pEC50: −log10 of the molar value.
# Columns and labels:
# Plasmodium falciparum [1] = assay: NOVARTIS: Inhibition of Plasmodium falciparum 3D7 (drug-susceptible) proliferation in erythrocyte-based infection assay; assay type: functional, organism-based; details: Plasmodium falciparum, 3D7
# Plasmodium falciparum [2] = assay: NOVARTIS: Inhibition of Plasmodium falciparum W2 (drug-resistant) proliferation in erythrocyte-based infection assay; assay type: functional, organism-based; details: Plasmodium falciparum, W2; read-out: EC50
# [3] = NOVARTIS: Cytotoxicity against human hepatocellular carcinoma cell line (Huh7); assay type: toxicity, cell-based, Huh-7; details: Huh7 cells (hepatocellular carcinoma cell line)
SMILES,pEC50 (Plasmodium falciparum [1]),pEC50 (Plasmodium falciparum [2]),CC50 [3] [µM]
Cc1cc(C)[n+]2nc(N)c3ccccc3c2n1.[O-][Cl+3]([O-])([O-])[O-],6.61,6.71,> 10
Brc1ccc(Nc2nc3ccccc3nc2Nc2ccc(Br)cc2)cc1,6.09,6.07,20.6
CCOc1ccc(C=NNC(=O)CCn2nnc3ccccc32)cc1,< 5.98,< 5.90,> 13.6
O=C(CCl)NCCNc1ncc(C(F)(F)F)cc1Cl,6.34,6.21,17.8
C=CC(C)(CCC=C(C)C)c1ccc2c3c(c[nH]c13)CC(CO)NC(=O)C(C(C)C)N2C (configuration not stated),6.26,6.71,> 10
Cc1cccc(NS(=O)(=O)c2ccc3[nH]c(=O)ccc3c2)c1C,< 4.90,6.08,81.8
Cc1ccc(C(OCC(C)(C)C[N+](C)(C)C)c2ccccc2)cc1 (configuration not stated),6.58,6.20,23.3
c1ccc(N=Nc2nnc(Nc3ccccc3)s2)cc1,6.02,6.05,> 10
O=C(C1CCN(c2cccc3c2C(=O)N(C2CC2)C3=O)CC1)N1CCC(O)(c2ccc(Cl)cc2)CC1,< 5.90,< 5.99,> 10
CN1CCN(c2nc(NN=Cc3cc(I)ccc3O)nc(Nc3ccc([N+](=O)[O-])cc3)n2)CC1,6.42,6.50,47.7
Cc1cc(C)c2c(c1)OCN(Cc1ccccc1Cl)C2,6.72,6.52,> 100
O=C(COC(c1ccccc1)c1cccnc1)NCCNC(=O)OCc1ccccc1 (configuration not stated),6.01,6.03,> 10
CCN(CC)CCCNC(=S)N(Cc1ccccc1)Cc1cc2cc(C)c(Cl)cc2[nH]c1=O,5.71,5.93,20.9
O=C1c2ccccc2-c2nc3nnnn3nc21,6.62,7.01,> 10
COc1ccc(CNCCN2CCN(c3ccc(C)cc3)C[C@@H]2c2ccccc2)cc1,6.04,6.90,> 10
CCOC(=O)C1=C(N)OC2=C(C(=O)CC(c3ccccc3)C2)C1c1ccc(Cl)cc1Cl (configuration not stated),< 5.90,< 6.22,> 10
COc1ccc(C2=C/C(=C/c3cccc(OC)c3OC)C(=O)O2)cc1OC,5.94,< 6.12,> 10

SMILES,pEC50 (Plasmodium falciparum [1]),pEC50 (Plasmodium falciparum [2]),CC50 [3] [µM]
Nc1ccc(-c2nc3cc(Oc4ccc5[nH]c(-c6ccc(N)cc6)nc5c4)ccc3[nH]2)cc1,6.17,6.45,21.4
COc1ccccc1N1CCN(c2ccc(NC(=O)c3ccc(Br)cc3)cc2C(=O)NCCCN(C)C)CC1,< 5.90,6.93,1.34
CCOC(=O)C1=C(c2ccccc2)N=c2sc(=Cc3c(C)n(Cc4ccc(F)cc4)c4ccccc34)c(=O)n2C1c1cccc(OC)c1OC (configuration not stated),5.95,5.34,> 100
Cc1cccc(-n2c(CNC(=O)c3ccc(S(=O)(=O)N4CCCCC4)cc3)nnc2SCC(=O)Nc2nccs2)c1,5.38,5.66,67.1
CC1CCc2c(sc(NC(=O)c3ccccc3F)c2C(=O)NCc2ccccc2)C1 (configuration not stated),< 6.16,< 5.90,> 10
CCCNC(=O)c1ccc(OC2CCN(CC(c3ccccc3)c3ccccc3)CC2)c(OC)c1,6.21,6.41,> 10
O=C(Nc1cccc(Oc2ccccc2)c1)NC(CN1CCCC1)c1ccccc1 (configuration not stated),6.15,5.84,11.8
COc1ccc(CN(Cc2ccc(C(C)C)cc2)S(=O)(=O)c2ccc(S(=O)(=O)N3CCN(c4ccccc4F)CC3)cc2)cc1,< 4.90,5.92,> 100
O=C1Nc2ccccc2C1=NN=Cc1ccc(-c2ccccc2[N+](=O)[O-])o1,< 4.90,5.17,> 100
O=C(O)/C=C\C(=O)N(C1CCCCC1)C1CCCCC1,< 5.90,< 6.15,> 10
CC(C)(C)CC(=O)N1CCC[C@@H]2CN(C(=O)CCOc3ccccc3)CC[C@@H]21,< 5.90,< 6.06,> 10
Cc1cccc(NC(=O)N2CCN(C(=O)c3nc(-c4ccccc4)nc(C)c3C(=O)OC(C)C)CC2C)c1C (configuration not stated),6.29,6.42,> 5.76
Cc1cc(S(=O)(=O)NC(Cc2ccc([N+](=O)[O-])cc2)C(=O)O)c(Cl)cc1Cl (configuration not stated),< 5.90,6.41,> 10
NC(Cc1ccccc1)C(=O)N1CCn2c(nc(-c3ccccc3)c2Nc2ccc3c(c2)OCO3)C1 (configuration not stated),7.52,7.54,42.8
O=C(Cn1c(-c2ccccc2)c[n+]2ccsc12)c1ccccc1,6.29,5.92,> 10
COc1ccc(-c2cncc3ccc(C(=O)NCc4ccncc4)nc23)cc1,< 5.87,5.92,> 10
CCOc1ccc(C(=O)C[N+]2=C(CC)c3ccc(C)n3CC2)cc1,5.61,5.66,81
